In patent US8192962B2, “Processes for detecting toxic substances” (Daikin Industries, Ltd., priority 2001, dated 2012):

Test system: DNA repair protein genes
Assay: DNA chip mRNA expression in yeast, DNA repair protein genes (Table 3)
Assay type: cell-based, Saccharomyces cerevisiae S288C
Details: incubated two hours, concentrations as in the 1st table
Outline: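 Expression change after 2 h toxicant exposure (growth-inhibiting, sub-lethal) of log-phase S. cerevisiae S288C at 25° C. Oligo-dT-purified mRNA was labeled with Cy3-dUTP or Cy5-dUTP and hybridized >12 h at 65° C. to a genome-wide chip; ratio of scanned fluorescence to control.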

**Q.** Which results are given for “manganese ethylenebis(dithiocarbamate) [(8)]”?
**A.** The level of expressed mRNA in the presence of chemical substance/The level of expressed mRNA in the absence of chemical substance (yeast gene YAL015C): 1.1; The level of expressed mRNA in the presence of chemical substance/The level of expressed mRNA in the absence of chemical substance (yeast gene YAR007C): 1.1; The level of expressed mRNA in the presence of chemical substance/The level of expressed mRNA in the absence of chemical substance (yeast gene YBL019W): 1.2; The level of expressed mRNA in the presence of chemical substance/The level of expressed mRNA in the absence of chemical substance (yeast gene YBR073W): 1.1; The level of expressed mRNA in the presence of chemical substance/The level of expressed mRNA in the absence of chemical substance (yeast gene YBR272C): 1.1; The level of expressed mRNA in the presence of chemical substance/The level of expressed mRNA in the absence of chemical substance (yeast gene YCR014C): 1.0; The level of expressed mRNA in the presence of chemical substance/The level of expressed mRNA in the absence of chemical substance (yeast gene YDL017W): 1.2; The level of expressed mRNA in the presence of chemical substance/The level of expressed mRNA in the absence of chemical substance (yeast gene YDL059C): 1.2; The level of expressed mRNA in the presence of chemical substance/The level of expressed mRNA in the absence of chemical substance (yeast gene YDL200C): 1.5; The level of expressed mRNA in the presence of chemical substance/The level of expressed mRNA in the absence of chemical substance (yeast gene YDR054C): 1.5; The level of expressed mRNA in the presence of chemical substance/The level of expressed mRNA in the absence of chemical substance (yeast gene YDR369C): 1.0; The level of expressed mRNA in the presence of chemical substance/The level of expressed mRNA in the absence of chemical substance (yeast gene YEL019C): 0.9; The level of expressed mRNA in the presence of chemical substance/The level of expressed mRNA in the absence of chemical substance (yeast gene YEL037C): 0.8; The level of expressed mRNA in the presence of chemical substance/The level of expressed mRNA in the absence of chemical substance (yeast gene YER162C): 0.9; The level of expressed mRNA in the presence of chemical substance/The level of expressed mRNA in the absence of chemical substance (yeast gene YFL014W): 3.4; The level of expressed mRNA in the presence of chemical substance/The level of expressed mRNA in the absence of chemical substance (yeast gene YGL058W): 1.3; The level of expressed mRNA in the presence of chemical substance/The level of expressed mRNA in the absence of chemical substance (yeast gene YGL091C): 1.8; The level of expressed mRNA in the presence of chemical substance/The level of expressed mRNA in the absence of chemical substance (yeast gene YGL127C): 0.9; The level of expressed mRNA in the presence of chemical substance/The level of expressed mRNA in the absence of chemical substance (yeast gene YGL163C): 1.4; The level of expressed mRNA in the presence of chemical substance/The level of expressed mRNA in the absence of chemical substance (yeast gene YGL249W): 0.9; The level of expressed mRNA in the presence of chemical substance/The level of expressed mRNA in the absence of chemical substance (yeast gene YGR180C): 1.0; The level of expressed mRNA in the presence of chemical substance/The level of expressed mRNA in the absence of chemical substance (yeast gene YGR231C): 1.1; The level of expressed mRNA in the presence of chemical substance/The level of expressed mRNA in the absence of chemical substance (yeast gene YGR258C): 0.8; The level of expressed mRNA in the presence of chemical substance/The level of expressed mRNA in the absence of chemical substance (yeast gene YHR164C): 1.1; The level of expressed mRNA in the presence of chemical substance/The level of expressed mRNA in the absence of chemical substance (yeast gene YIL036W): 1.1; The level of expressed mRNA in the presence of chemical substance/The level of expressed mRNA in the absence of chemical substance (yeast gene YIL072W): 1.4; The level of expressed mRNA in the presence of chemical substance/The level of expressed mRNA in the absence of chemical substance (yeast gene YIL143C): 0.9; The level of expressed mRNA in the presence of chemical substance/The level of expressed mRNA in the absence of chemical substance (yeast gene YIL153W): 0.5; The level of expressed mRNA in the presence of chemical substance/The level of expressed mRNA in the absence of chemical substance (yeast gene YIR002C): 1.2; The level of expressed mRNA in the presence of chemical substance/The level of expressed mRNA in the absence of chemical substance (yeast gene YJL026W): 1.2; The level of expressed mRNA in the presence of chemical substance/The level of expressed mRNA in the absence of chemical substance (yeast gene YJR046W): 0.9; The level of expressed mRNA in the presence of chemical substance/The level of expressed mRNA in the absence of chemical substance (yeast gene YJR052W): 1.7; The level of expressed mRNA in the presence of chemical substance/The level of expressed mRNA in the absence of chemical substance (yeast gene YKL145W): 1.5; The level of expressed mRNA in the presence of chemical substance/The level of expressed mRNA in the absence of chemical substance (yeast gene YLR103C): 1.4; The level of expressed mRNA in the presence of chemical substance/The level of expressed mRNA in the absence of chemical substance (yeast gene YLR233C): 1.1; The level of expressed mRNA in the presence of chemical substance/The level of expressed mRNA in the absence of chemical substance (yeast gene YLR288C): 1.5; The level of expressed mRNA in the presence of chemical substance/The level of expressed mRNA in the absence of chemical substance (yeast gene YML032C): 0.9; The level of expressed mRNA in the presence of chemical substance/The level of expressed mRNA in the absence of chemical substance (yeast gene YML058W): 0.7; The level of expressed mRNA in the presence of chemical substance/The level of expressed mRNA in the absence of chemical substance (yeast gene YMR035W): 1.4; The level of expressed mRNA in the presence of chemical substance/The level of expressed mRNA in the absence of chemical substance (yeast gene YMR072W): 1.0; The level of expressed mRNA in the presence of chemical substance/The level of expressed mRNA in the absence of chemical substance (yeast gene YMR096W): 2.0; The level of expressed mRNA in the presence of chemical substance/The level of expressed mRNA in the absence of chemical substance (yeast gene YMR284W): 1.1; The level of expressed mRNA in the presence of chemical substance/The level of expressed mRNA in the absence of chemical substance (yeast gene YNL213C): 1.8; The level of expressed mRNA in the presence of chemical substance/The level of expressed mRNA in the absence of chemical substance (yeast gene YNL250W): 1.3; The level of expressed mRNA in the presence of chemical substance/The level of expressed mRNA in the absence of chemical substance (yeast gene YNL261W): 1.1; The level of expressed mRNA in the presence of chemical substance/The level of expressed mRNA in the absence of chemical substance (yeast gene YNL312W): 1.2; The level of expressed mRNA in the presence of chemical substance/The level of expressed mRNA in the absence of chemical substance (yeast gene YOL043C): 0.9; The level of expressed mRNA in the presence of chemical substance/The level of expressed mRNA in the absence of chemical substance (yeast gene YOR005C): 1.3; The level of expressed mRNA in the presence of chemical substance/The level of expressed mRNA in the absence of chemical substance (yeast gene YOR386W): 1.0; The level of expressed mRNA in the presence of chemical substance/The level of expressed mRNA in the absence of chemical substance (yeast gene YPL022W): 1.0; The level of expressed mRNA in the presence of chemical substance/The level of expressed mRNA in the absence of chemical substance (yeast gene YPL164C): 1.0; The level of expressed mRNA in the presence of chemical substance/The level of expressed mRNA in the absence of chemical substance (yeast gene YPL194W): 1.3; The level of expressed mRNA in the presence of chemical substance/The level of expressed mRNA in the absence of chemical substance (yeast gene YPR025C): 1.3
